Laboratory results as given in patent US11767322B2 (BRISTOL-MYERS SQUIBB COMPANY, priority 2020, dated 2023).
Read-outs that look alike come from different tables or passages of the source.

Columns and labels:
[1] = target: T1, His-GST-TVMV-hRIPK1(1-324) (Homo sapiens, UniProt Q13546); assay: biochemical; format: binding
T1 construct: The coding region of human RIPK1(1-324) flanked by NdeI site at 5′ end; made in house; host or cells: Spodoptera frugiperda Sf9 insect cells (baculovirus, Bac-to-Bac)
T1 sequence (Q13546 1-324): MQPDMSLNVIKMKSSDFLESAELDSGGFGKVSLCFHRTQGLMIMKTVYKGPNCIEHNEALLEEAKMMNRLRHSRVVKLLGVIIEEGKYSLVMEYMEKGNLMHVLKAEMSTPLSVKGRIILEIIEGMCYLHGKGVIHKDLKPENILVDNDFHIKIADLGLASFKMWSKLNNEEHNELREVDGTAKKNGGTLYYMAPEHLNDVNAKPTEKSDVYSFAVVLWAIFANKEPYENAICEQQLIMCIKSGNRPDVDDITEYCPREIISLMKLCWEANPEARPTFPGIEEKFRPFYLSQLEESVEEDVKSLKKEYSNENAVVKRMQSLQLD

[2] = tested on: MLKL phosphorylation in HT29-L23 human colorectal adenocarcinoma cells; assay: MLKL phosphorylation high-content assay; format: cell-based
[3] = HTRF probe displacement, 1 h at rt, read-out: RIPK1 IC50
[4] = Table 22, compounds of the present invention, read-out: RPIK1 IC50
[5] = read-out: pMLKL IC50, HT29-L23 cells, necroptosis induced with TNFα, SMAC mimetic and Z-VAD, 6 h, maximal inhibition defined by Nec1s
[6] = read-out: pMLKL IC50, Table 22, compounds of the present invention
[7] = Homo sapiens, 6 h, read-out: pMLKL IC50, HT29-L23 cells, necroptosis induced with TNFα, SMAC mimetic and Z-VAD, 6 h, maximal inhibition defined by Nec1s

Cc1ccc(-c2ccn3nc(N)nc3c2)c(F)c1C(=O)NCC(O)C(F)(F)c1ccc(F)cc1 (single isomer, unassigned) [Example 290, 3-(2-amino-[1,2,4]triazolo[1,5-a]pyridin-7-yl)-N-(3,3-difluoro-3-(4-fluorophenyl)-2-hydroxypropyl)-2-fluoro-6-methylbenzamide]
IC50 [1, 3]: 4.8 nM | IC50 [1, 4]: 4.8 nM | IC50 [2, 5]: 0.5 nM | IC50 [2, 6]: 0.5 nM

Cc1ccc(-c2ccn3nc(N)nc3c2)c(F)c1C(=O)NCCC(C)(O)c1ccc(Cl)cc1 (racemic) [Example 17, 3-(2-amino-[1,2,4]triazolo[1,5-a]pyridin-7-yl)-N-(3-(4-chlorophenyl)-3-hydroxybutyl)-2-fluoro-6-methylbenzamide]
IC50 [1, 3]: 1.9 nM | IC50 [2, 7]: 2.5 nM

Cc1ccc(-c2ccn3nc(N)nc3c2C)c(F)c1C(=O)NCC[C@H](O)c1ccc(Cl)cc1 (single isomer, unassigned; enantiomer 2) [Example 138]
IC50 [1, 3]: 11 nM | IC50 ([2]; HT29-L23 cells, necroptosis induced with TNFα, SMAC mimetic and Z-VAD, 6 h, maximal inhibition defined by Nec1s, read-out: pMLKL IC50): 0.2 nM

Nc1nc2cc(-c3ccc(C(F)(F)F)c(C(=O)NCC(F)(F)[C@@H](O)c4ccc(F)cc4)c3F)ccn2n1 [Example 315, (S)-3-(2-amino-[1,2,4]triazolo[1,5-a]pyridin-7-yl)-N-(2,2-difluoro-3-(4-fluorophenyl)-3-hydroxypropyl)-2-fluoro-6-(trifluoromethyl)benzamide]
IC50 [1, 3]: 6.9 nM | IC50 [2, 7]: 0.4 nM

Cc1cc(F)c(-c2ccn3nc(N)nc3c2)cc1C(=O)NCCC(O)c1ccc(Cl)cn1 (stereo not shown) [Example 5, 5-(2-amino-[1,2,4]triazolo[1,5-a]pyridin-7-yl)-N-(3-(5-chloropyridin-2-yl)-3-hydroxypropyl)-4-fluoro-2-methylbenzamide]
IC50 [1, 3]: 6.4 nM | IC50 [2, 7]: 2.6 nM

Cc1ccc(-c2ccn3nc(N)nc3c2)c(F)c1C(=O)NCC(O)C(F)(F)c1ccc(F)cc1 (single isomer, unassigned) [Example 291, 3-(2-amino-[1,2,4]triazolo[1,5-a]pyridin-7-yl)-N-(3,3-difluoro-3-(4-fluorophenyl)-2-hydroxypropyl)-2-fluoro-6-methylbenzamide]
IC50 [1, 3]: 1 nM | IC50 [1, 4]: 1 nM | IC50 [2, 5]: 2.4 nM | IC50 [2, 6]: 2.4 nM

Cc1cc(F)c(-c2ccn3nc(N)nc3c2)cc1C(=O)NCC(F)(F)C(C)(O)c1ccc(Cl)cc1 (single isomer, unassigned) [Example 226, 5-(2-amino-[1,2,4]triazolo[1,5-a]pyridin-7-yl)-N-(3-(4-chlorophenyl)-2,2-difluoro-3-hydroxybutyl)-4-fluoro-2-methylbenzamide]
IC50 [1, 3]: 8.3 nM | IC50 [2, 5]: 2.2 nM

Cc1ccc(C(O)C(F)(F)CNC(=O)c2c(Cl)ccc(-c3ccn4nc(N)nc4c3)c2F)cc1 (stereo not shown) [Example 173, 3-(2-amino-[1,2,4]triazolo[1,5-a]pyridin-7-yl)-6-chloro-N-(2,2-difluoro-3-hydroxy-3-(p-tolyl)propyl)-2-fluorobenzamide]
IC50 [1, 3]: 0.9 nM | IC50 [2, 7]: 0.9 nM

COC(c1ccc(F)cc1)C(F)(F)CNC(=O)c1c(C)ccc(-c2ccn3nc(N)nc3c2)c1F (single isomer, unassigned) [Example 234, 3-(2-amino-[1,2,4]triazolo[1,5-a]pyridin-7-yl)-N-(2,2-difluoro-3-(4-fluorophenyl)-3-methoxypropyl)-2-fluoro-6-methylbenzamide]
IC50 [1, 3]: 8.4 nM | IC50 [2, 5]: 3 nM

Cc1ccc(-c2ccn3nc(N)nc3c2)c(F)c1C(=O)NCC(F)(F)Cc1ccc(F)cc1 [Example 208, 3-(2-amino-[1,2,4]triazolo[1,5-a]pyridin-7-yl)-N-(2,2-difluoro-3-(4-fluorophenyl)propyl)-2-fluoro-6-methylbenzamide]
IC50 [1, 3]: 2.6 nM | IC50 [2, 7]: 0.2 nM

[2H]C([2H])(CC([2H])(O)c1ccc(Cl)cc1)NC(=O)c1c(Cl)ccc(-c2ccn3nc(N)nc3c2)c1F (stereo not shown) [Example 75, 3-(2-amino-[1,2,4]triazolo[1,5-a]pyridin-7-yl)-6-chloro-N-(3-(4-chlorophenyl)-3-hydroxypropyl-1,1,3-d3)-2-fluorobenzamide]
IC50 [1, 3]: 3.2 nM | IC50 [2, 5]: 4.3 nM

Cc1ncc(-c2ccn3nc(N)nc3c2)cc1C(=O)NCC(C)(O)Cc1ccc(F)cc1 (stereo not shown) [Compound 421 from WO2018/148626, reference compound]
IC50 ([1]; Table 23, representative compounds from WO2018/148626, read-out: RIPK1 IC50): 110 nM | IC50 ([2]; Homo sapiens, Table 23, representative compounds from WO2018/148626, read-out: pMLKL IC50): 315 nM

[2H]C([2H])([2H])c1ccc(-c2ccn3nc(N)nc3c2)c(F)c1C(=O)NCC(F)(F)C(O)c1ccc(F)cc1 (stereo not shown) [Example 123, 3-(2-amino-[1,2,4]triazolo[1,5-a]pyridin-7-yl)-N-(2,2-difluoro-3-(4-fluorophenyl)-3-hydroxypropyl)-2-fluoro-6-(methyl-d3)benzamide]
IC50 [1, 3]: 5.7 nM | IC50 [2, 7]: 0.8 nM

[2H]C([2H])([2H])c1ccc(-c2ccn3nc(N)nc3c2)c(F)c1C(=O)NCC(F)(F)C(C)(O)c1ccc(F)cc1 (single isomer, unassigned) [Example 241, 3-(2-amino-[1,2,4]triazolo[1,5-a]pyridin-7-yl)-N-(2,2-difluoro-3-(4-fluorophenyl)-3-hydroxybutyl)-2-fluoro-6-(methyl-d3)benzamide]
IC50 [1, 3]: 10 nM | IC50 [2, 7]: 1.2 nM

Nc1nc2cc(-c3ccc(Cl)c(C(=O)NCC(F)(F)C(O)c4cccc(C(F)(F)F)n4)c3F)ccn2n1 (single isomer, unassigned) [Example 254, 3-(2-amino-[1,2,4]triazolo[1,5-a]pyridin-7-yl)-6-chloro-N-(2,2-difluoro-3-hydroxy-3-(6-(trifluoromethyl)pyridin-2-yl)propyl)-2-fluorobenzamide]
IC50 [1, 3]: 3.5 nM | IC50 [2, 5]: 4.1 nM

[2H]C([2H])([2H])c1ccc(-c2ccn3nc(N)nc3c2)c(F)c1C(=O)NCC1(C([2H])(O)c2ccc(F)cc2)CC1 (single isomer, unassigned) [Example 310, 3-(2-amino-[1,2,4]triazolo[1,5-a]pyridin-7-yl)-2-fluoro-N-((1-((4-fluorophenyl) (hydroxy)methyl-d)cyclopropyl)methyl)-6-(methyl-d3)benzamide]
IC50 [1, 3]: 5.7 nM | IC50 [2, 5]: 20 nM

COC(=O)c1ccc(CCCNC(=O)c2c(Cl)ccc(-c3ccn4nc(N)nc4c3)c2F)cc1 [Example 273, methyl 4-(3-(3-(2-amino-[1,2,4]triazolo[1,5-a]pyridin-7-yl)-6-chloro-2-fluorobenzamido)propyl)benzoate]
IC50 [1, 3]: 3.9 nM | IC50 [2, 7]: 37 nM

Cc1ccc(-c2ccn3nc(N)nc3c2)c(F)c1C(=O)NCC(C)(F)C(O)c1ccc(F)cc1 (single isomer, unassigned) [Example 203, 3-(2-amino-[1,2,4]triazolo[1,5-a]pyridin-7-yl)-2-fluoro-N-(2-fluoro-3-(4-fluorophenyl)-3-hydroxy-2-methylpropyl)-6-methylbenzamide]
IC50 [1, 3]: 5.6 nM | IC50 [2, 5]: 2.7 nM

Cc1ccc(-c2ccn3nc(N)nc3c2)c(F)c1C(=O)NCCC(O)c1cccc(F)c1 (single isomer, unassigned) [Example 64, 3-(2-amino-[1,2,4]triazolo[1,5-a]pyridin-7-yl)-2-fluoro-N-(3-(3-fluorophenyl)-3-hydroxypropyl)-6-methylbenzamide]
IC50 [1, 3]: 12 nM | IC50 [2, 5]: 8 nM

Cc1ccc(-c2ccn3nc(N)nc3c2C)c(F)c1C(=O)NCC[C@H](O)c1ccc(Cl)cc1 [compound 134]
IC50 [1, 3]: 2.9 nM | IC50 [2, 7]: 1.5 nM

[2H]C([2H])([2H])c1ccc(-c2ccn3nc(N)nc3c2)c(F)c1C(=O)NCC(F)(F)C(C)(O)c1ccc(Cl)cc1 (single isomer, unassigned) [Example 252, 3-(2-amino-[1,2,4]triazolo[1,5-a]pyridin-7-yl)-N-(3-(4-chlorophenyl)-2,2-difluoro-3-hydroxybutyl)-2-fluoro-6-(methyl-d3)benzamide]
IC50 [1, 3]: 7.2 nM | IC50 [2, 5]: 2.7 nM

Cc1ccc(-c2ccn3nc(N)nc3c2)c(F)c1C(=O)NCC(F)(F)C(N)c1ccc(F)cc1 (stereo not shown) [Example 275, N-(3-amino-2,2-difluoro-3-(4-fluorophenyl)propyl)-3-(2-amino-[1,2,4]triazolo[1,5-a]pyridin-7-yl)-2-fluoro-6-methylbenzamide]
IC50 [1, 3]: 6.5 nM | IC50 [2, 7]: 1.5 nM

Cc1ccc(-c2ccn3nc(N)nc3c2)c(F)c1C(=O)NCC(C)(F)C(O)c1ccc(F)cc1 (single isomer, unassigned) [Example 202, 3-(2-amino-[1,2,4]triazolo[1,5-a]pyridin-7-yl)-2-fluoro-N-(2-fluoro-3-(4-fluorophenyl)-3-hydroxy-2-methylpropyl)-6-methylbenzamide]
IC50 [1, 3]: 13 nM | IC50 [2, 5]: 2.1 nM

Cc1cc(F)c(-c2ccn3nc(N)nc3c2)cc1C(=O)NCCC(O)c1ccc(F)cc1 (stereo not shown) [Example 8, 5-(2-amino-[1,2,4]triazolo[1,5-a]pyridin-7-yl)-4-fluoro-N-(3-(4-fluorophenyl)-3-hydroxypropyl)-2-methylbenzamide]
IC50 [1, 3]: 5.1 nM | IC50 [2, 7]: 2.3 nM
